Key:
NCI-H226 = test: Growth inhibition of human NCI-H226 cells incubated for 48 hrs by sulforhodamine B assay; format: functional, cell-based; settings: NCI-H226, 48 h
SW-620 = test: Growth inhibition of human SW620 cells incubated for 48 hrs by sulforhodamine B assay; format: functional, cell-based; settings: SW-620, 48 h
SF-295 [1] = test: Growth inhibition of human SF295 cells incubated for 48 hrs by sulforhodamine B assay; format: functional, cell-based; settings: SF-295, 48 h
SNB-75 = test: Growth inhibition of human SNB75 cells incubated for 48 hrs by sulforhodamine B assay; format: functional, cell-based; settings: SNB-75, 48 h
SR = test: Growth inhibition of human SR cells assessed as cell growth at 0.01 uM incubated for 48 hrs by sulforhodamine B assay relative to control; format: functional; settings: read-out: Activity
NCI-H322M = test: Growth inhibition of human NCI-H322M cells assessed as cell growth at 0.01 uM incubated for 48 hrs by sulforhodamine B assay relative to control; format: functional; settings: read-out: Activity
U-251 = test: Growth inhibition of human U251 cells assessed as cell growth at 0.01 uM incubated for 48 hrs by sulforhodamine B assay relative to control; format: functional; settings: U-251, 48 h, read-out: Activity
M14 = test: Growth inhibition of human M14 cells assessed as cell growth at 0.01 uM incubated for 48 hrs by sulforhodamine B assay relative to control; format: functional; settings: M14, 48 h, read-out: Activity
MDA-MB-435 [2] = test: Growth inhibition of human MDA-MB-435 cells assessed as cell growth at 0.01 uM incubated for 48 hrs by sulforhodamine B assay relative to control; format: functional; settings: MDA-MB-435, 48 h, read-out: Activity
MDA-MB-231 = test: Growth inhibition of human MDA-MB-231 cells assessed as cell growth at 0.01 uM incubated for 48 hrs by sulforhodamine B assay relative to control; format: functional; settings: MDA-MB-231, 48 h, read-out: Activity
SF-295 [3] = test: Growth inhibition of human SF295 cells assessed as cell growth at 0.1 uM incubated for 48 hrs by sulforhodamine B assay relative to control; format: functional; settings: SF-295, 48 h, read-out: Activity
SF-539 = test: Growth inhibition of human SF539 cells assessed as cell growth at 0.1 uM incubated for 48 hrs by sulforhodamine B assay relative to control; format: functional; settings: SF-539, 48 h, read-out: Activity
LOX IMVI = test: Growth inhibition of human LOXIMVI cells assessed as cell growth at 0.1 uM incubated for 48 hrs by sulforhodamine B assay relative to control; format: functional; settings: read-out: Activity
OVCAR-4 [4] = test: Growth inhibition of human OVCAR4 cells assessed as cell growth at 0.1 uM incubated for 48 hrs by sulforhodamine B assay relative to control; format: functional; settings: OVCAR-4, 48 h, read-out: Activity
SK-OV-3 = test: Growth inhibition of human SKOV3 cells assessed as cell growth at 0.1 uM incubated for 48 hrs by sulforhodamine B assay relative to control; format: functional; settings: SK-OV-3, 48 h, read-out: Activity
UO-31 [5] = test: Growth inhibition of human UO31 cells assessed as cell growth at 0.1 uM incubated for 48 hrs by sulforhodamine B assay relative to control; format: functional; settings: UO-31, 48 h, read-out: Activity
PC-3 = test: Growth inhibition of human PC3 cells assessed as cell growth at 0.1 uM incubated for 48 hrs by sulforhodamine B assay relative to control; format: functional; settings: PC-3, 48 h, read-out: Activity
SF-268 [6] = test: Growth inhibition of human SF268 cells assessed as cell growth at 1 uM incubated for 48 hrs by sulforhodamine B assay relative to control; format: functional; settings: SF-268, 48 h, read-out: Activity
SF-295 [7] = test: Growth inhibition of human SF295 cells assessed as cell growth at 1 uM incubated for 48 hrs by sulforhodamine B assay relative to control; format: functional; settings: SF-295, 48 h, read-out: Activity
OVCAR-8 = test: Growth inhibition of human OVCAR8 cells assessed as cell growth at 1 uM incubated for 48 hrs by sulforhodamine B assay relative to control; format: functional; settings: OVCAR-8, 48 h, read-out: Activity
ACHN = test: Growth inhibition of human ACHN cells assessed as cell growth at 1 uM incubated for 48 hrs by sulforhodamine B assay relative to control; format: functional; settings: read-out: Activity
UO-31 [8] = test: Growth inhibition of human UO31 cells assessed as cell growth at 1 uM incubated for 48 hrs by sulforhodamine B assay relative to control; format: functional; settings: UO-31, 48 h, read-out: Activity
A549 = test: Growth inhibition of human A549/ATCC cells assessed as cell growth at 100 uM incubated for 48 hrs by sulforhodamine B assay relative to control; format: functional; settings: A549, 48 h, read-out: Activity
HCT-116 = test: Growth inhibition of human HCT116 cells assessed as cell growth at 100 uM incubated for 48 hrs by sulforhodamine B assay relative to control; format: functional; settings: HCT-116, 48 h, read-out: Activity
SF-268 [9] = test: Growth inhibition of human SF268 cells assessed as cell growth at 100 uM incubated for 48 hrs by sulforhodamine B assay relative to control; format: functional; settings: SF-268, 48 h, read-out: Activity
MDA-MB-435 [10] = test: Growth inhibition of human MDA-MB-435 cells assessed as cell growth at 100 uM incubated for 48 hrs by sulforhodamine B assay relative to control; format: functional; settings: MDA-MB-435, 48 h, read-out: Activity
SK-MEL-2 = test: Growth inhibition of human SK-MEL-2 cells assessed as cell growth at 100 uM incubated for 48 hrs by sulforhodamine B assay relative to control; format: functional; settings: SK-MEL-2, 48 h, read-out: Activity
OVCAR-4 [11] = test: Growth inhibition of human OVCAR4 cells assessed as cell growth at 100 uM incubated for 48 hrs by sulforhodamine B assay relative to control; format: functional; settings: OVCAR-4, 48 h, read-out: Activity
OVCAR-5 = test: Growth inhibition of human OVCAR5 cells assessed as cell growth at 100 uM incubated for 48 hrs by sulforhodamine B assay relative to control; format: functional; settings: OVCAR-5, 48 h, read-out: Activity
CAKI-1 = test: Growth inhibition of human Caki1 cells assessed as cell growth at 100 uM incubated for 48 hrs by sulforhodamine B assay relative to control; format: functional; settings: CAKI-1, 48 h, read-out: Activity
Hs-578T = test: Growth inhibition of human Hs578T cells assessed as cell growth at 100 uM incubated for 48 hrs by sulforhodamine B assay relative to control; format: functional; settings: read-out: Activity
[12] = read-out: LC50 (the source's name)
[13] = read-out: pLC50 (the source's name) (converted)

Compound: O=C(Nc1cccc(-n2cc(-c3ccncc3)c(-c3cc(O)cc(Cl)c3)n2)c1)c1cc(C(F)(F)F)cc(C(F)(F)F)c1
- GI50 (NCI-H226; read-out: GI50): 1.51 µM
- LC50 (NCI-H226; read-out: LC50): > 100 µM
- TGI (NCI-H226; read-out: TGI): > 100 µM
- GI50 (NCI-H226; read-out: pGI50 (converted)): 16.2 µM
- LC50 (NCI-H226; read-out: pLC50 (converted)): > 100 µM
- TGI (NCI-H226; read-out: pTGI (converted)): > 100 µM
- GI50 (SW-620; read-out: GI50): 4.48 µM
- LC50 (SW-620; read-out: LC50): > 100 µM
- TGI (SW-620; read-out: TGI): > 100 µM
- GI50 (SW-620; read-out: pGI50 (converted)): 4.47 µM
- LC50 (SW-620; read-out: pLC50 (converted)): > 100 µM
- TGI (SW-620; read-out: pTGI (converted)): > 100 µM
- GI50 (SF-295 [1]; read-out: GI50): 2.37 µM
- CC50 (SF-295 [1]; [12]): > 100 µM
- TGI (SF-295 [1]; read-out: TGI): 71.5 µM
- GI50 (SF-295 [1]; read-out: pGI50 (converted)): 2.4 µM
- CC50 (SF-295 [1]; [13]): > 100 µM
- TGI (SF-295 [1]; read-out: pTGI (converted)): 7.08 µM
- GI50 (SNB-75; read-out: GI50): 2.3 µM
- CC50 (SNB-75; [12]): > 100 µM
- TGI (SNB-75; read-out: TGI): > 100 µM
- GI50 (SNB-75; read-out: pGI50 (converted)): 2.82 µM
- CC50 (SNB-75; [13]): > 100 µM
- TGI (SNB-75; read-out: pTGI (converted)): > 100 µM
- growth at 0.01 µM (SR): 94%
- growth at 0.01 µM (NCI-H322M): 103%
- growth at 0.01 µM (U-251): 96%
- growth at 0.01 µM (M14): 100%
- growth at 0.01 µM (MDA-MB-435 [2]): 91%
- growth at 0.01 µM (MDA-MB-231): 98%
- growth at 0.1 µM (SF-295 [3]): 89%
- growth at 0.1 µM (SF-539): 91%
- growth at 0.1 µM (LOX IMVI): 102%
- growth at 0.1 µM (OVCAR-4 [4]): 104%
- growth at 0.1 µM (SK-OV-3): 98%
- growth at 0.1 µM (UO-31 [5]): 70%
- growth at 0.1 µM (PC-3): 93%
- growth at 1 µM (SF-268 [6]): 94%
- growth at 1 µM (SF-295 [7]): 59%
- growth at 1 µM (OVCAR-8): 91%
- growth at 1 µM (ACHN): 99%
- growth at 1 µM (UO-31 [8]): 71%
- growth at 100 µM (A549): 4%
- growth at 100 µM (HCT-116): 5%
- growth at 100 µM (SF-268 [9]): 31%
- growth at 100 µM (MDA-MB-435 [10]): 3%
- growth at 100 µM (SK-MEL-2): -43%
- growth at 100 µM (OVCAR-4 [11]): 15%
- growth at 100 µM (OVCAR-5): -32%
- growth at 100 µM (CAKI-1): 7%
- growth at 100 µM (Hs-578T): 34%

From ChEMBL document CHEMBL4308841, “Synthesis, in vitro antiproliferative activity, and kinase inhibitory effects of pyrazole-containing diarylureas and diarylamides” (Eur J Med Chem, 2018)
